Earlier results as cited in EP4233849A1, “PHARMACEUTICAL COMPOSITION COMPRISING POMALIDOMIDE” (KRKA, d.d., Novo mesto, priority 2022, dated 2023).
Read-outs that look alike come from different tables or passages of the source.

Experiments:
[1] = according to BCS classification
[2] = accelerated and room temperature conditions; anhydrous lactose, microcrystalline cellulose, anhydrous dibasic calcium phosphate, croscarmellose sodium, magnesium stearate

solubility (in absolute ethanol, ethyl acetate, heptane, methanol, 2-propanol and toluene): very slightly soluble | solubility (in acetone, acetonitrile, methylene chloride, methyl ethyl ketone and tetrahydrofuran): slightly soluble | solubility (in water): practically insoluble | solubility [1]: low solubility | stability in the presence of particular excipients [2]: instability problems
Compound: Nc1cccc2c1C(=O)N(C1CCC(=O)NC1=O)C2=O (racemic) [Pomalidomide, (RS) 4-Amino-2-(2,6-dioxopiperidin-3-yl)isoindole-1,3-dione]
